Assay results published in patent US20240101528A1, “SUBSTITUTED PYRAZOLO PIPERIDINE CARBOXYLIC ACIDS” (BAYER AKTIENGESELLSCHAFT, priority 2020, published 2024).
Where a name gives a salt, the structure may show the parent alone.

Biological target: T1, recombinant guanylate cyclase reporter cell line (Rattus norvegicus, UniProt P20595)
T1 construct: expressed in transfected cells
T1 sequence (P20595 1-619): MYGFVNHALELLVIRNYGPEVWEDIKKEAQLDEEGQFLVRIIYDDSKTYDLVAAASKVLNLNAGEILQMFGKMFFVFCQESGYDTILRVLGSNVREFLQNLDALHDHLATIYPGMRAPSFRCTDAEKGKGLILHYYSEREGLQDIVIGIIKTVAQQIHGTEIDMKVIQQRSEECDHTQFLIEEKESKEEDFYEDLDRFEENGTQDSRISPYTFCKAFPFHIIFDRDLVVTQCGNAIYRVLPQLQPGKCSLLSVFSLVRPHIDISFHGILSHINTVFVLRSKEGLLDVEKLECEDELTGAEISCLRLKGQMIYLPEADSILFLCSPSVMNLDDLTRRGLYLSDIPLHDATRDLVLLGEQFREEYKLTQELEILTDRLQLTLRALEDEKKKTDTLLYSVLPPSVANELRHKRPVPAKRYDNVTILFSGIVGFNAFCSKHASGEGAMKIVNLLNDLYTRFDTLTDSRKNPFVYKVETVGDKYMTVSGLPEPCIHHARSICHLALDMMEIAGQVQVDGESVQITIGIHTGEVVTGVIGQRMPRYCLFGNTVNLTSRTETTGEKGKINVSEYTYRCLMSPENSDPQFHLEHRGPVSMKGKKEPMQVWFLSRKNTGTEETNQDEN
T1 sequence (P19686 1-690 partner): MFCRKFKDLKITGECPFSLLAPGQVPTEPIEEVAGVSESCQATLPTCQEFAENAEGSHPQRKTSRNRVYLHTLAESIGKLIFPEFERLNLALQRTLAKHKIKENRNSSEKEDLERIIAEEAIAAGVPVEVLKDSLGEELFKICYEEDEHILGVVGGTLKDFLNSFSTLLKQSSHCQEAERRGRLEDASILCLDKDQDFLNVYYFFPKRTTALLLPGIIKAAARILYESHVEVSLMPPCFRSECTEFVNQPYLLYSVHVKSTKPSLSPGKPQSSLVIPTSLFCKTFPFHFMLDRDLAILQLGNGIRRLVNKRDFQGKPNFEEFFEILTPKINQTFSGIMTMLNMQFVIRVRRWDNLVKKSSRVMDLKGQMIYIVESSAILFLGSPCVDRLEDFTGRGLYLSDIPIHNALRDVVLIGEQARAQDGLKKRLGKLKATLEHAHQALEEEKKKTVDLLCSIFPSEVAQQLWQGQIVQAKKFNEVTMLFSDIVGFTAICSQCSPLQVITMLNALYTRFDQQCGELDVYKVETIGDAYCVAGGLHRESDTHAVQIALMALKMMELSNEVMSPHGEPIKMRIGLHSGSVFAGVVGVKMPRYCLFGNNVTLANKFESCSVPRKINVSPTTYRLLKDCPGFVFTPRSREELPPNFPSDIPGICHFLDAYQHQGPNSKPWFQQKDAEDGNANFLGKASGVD
Assay: Effect on a recombinant guanylate cyclase reporter cell line
Format: cell-based
Details: for EC50: half maximal effective concentration; for MEC: minimum effective concentration
Procedure: B-1. Effect on a Recombinant Guanylate Cyclase Reporter Cell Line
The cellular activity of the compounds according to the invention was determined using a recombinant guanylate cyclase reporter cell line, as described in F. Wunder et al., Anal. Biochem. 339, 104-112 (2005).

Row | Structure (SMILES) | EC50 [nM] | MEC [nM]
1 | O=C(O)c1cnn(C2CCCN(c3cc(Cl)ccc3-c3ccc(C4CN(CC(F)(F)F)C4)cc3)C2)c1C(F)F (single isomer, unassigned; enantiomer 2) [Example 58, 1-(1-{4-Chloro-4′-[1-(2,2,2-trifluoroethyl)azetidin-3-yl][biphenyl]-2-yl}piperidin-3-yl)-5-(difluoromethyl)-1H-pyrazole-4-carboxylic acid hydrochloride (Enantiomer 2)] | 31.5 | 3.0
2 | CN1CCN(c2ccc(-c3ccc(Cl)cc3N3CCCC(n4ncc(C(=O)O)c4C(F)F)C3)cc2)CC1 (single isomer, unassigned; enantiomer 2) [Example 2, 1-{1-[4-Chloro-4′-(4-methylpiperazin-1-yl)[biphenyl]-2-yl]piperidin-3-yl}-5-(difluoromethyl)-1H-pyrazole-4-carboxylic acid hydrochloride (Enantiomer 2)] | 25.2 | 7.0
3 | O=C(O)c1cnn(C2CCCN(c3cc(Cl)ccc3-c3ccc(N4CCN(CCC(F)(F)F)CC4)cc3)C2)c1C(F)F (single isomer, unassigned; enantiomer 2) [Example 23, 1-(1-{4-Chloro-4′-[4-(3,3,3-trifluoropropyl)piperazin-1-yl][biphenyl]-2-yl}piperidin-3-yl)-5-(difluoromethyl)-1H-pyrazole-4-carboxylic acid hydrochloride (Enantiomer 2)] | 1 | <0.3
4 | O=C(O)c1cnn(C2CCCN(c3cc(Cl)ccc3-c3ccc(N4CCN(CC5CC5(F)F)CC4)cc3)C2)c1C(F)F (mixture of isomers) [Example 27, 1-{1-[4-Chloro-4′-(4-{[2,2-difluorocyclopropyl]methyl}piperazin-1-yl)[biphenyl]-2-yl]piperidin-3-yl}-5-(difluoromethyl)-1H-pyrazole-4-carboxylic acid hydrochloride (Diastereomeric mixture 2)] | 2.8 | 0.3
5 | O=C(O)c1cnn(C2CCCN(c3cc(Cl)ccc3-c3ccc(N4CCCC4)cc3)C2)c1C(F)F (single isomer, unassigned; enantiomer 1) [Example 44, 1-{1-[4-Chloro-4′-(pyrrolidin-1-yl)[biphenyl]-2-yl]piperidin-3-yl}-5-(difluoromethyl)-1H-pyrazole-4-carboxylic acid (Enantiomer 1)] | 45 | 10.0
6 | N#CCCN1CCN(c2ccc(-c3ccc(Cl)cc3N3CCCC(n4ncc(C(=O)O)c4C(F)F)C3)cc2)CC1 (single isomer, unassigned; enantiomer 2) [Example 46, 1-(1-{4-Chloro-4′-[4-(2-cyanoethyl)piperazin-1-yl][biphenyl]-2-yl}piperidin-3-yl)-5-(difluoromethyl)-1H-pyrazole-4-carboxylic acid (Enantiomer 2)] | 1.7 | 0.3
7 | NC(=O)CCN1CCN(c2ccc(-c3ccc(Cl)cc3N3CCCC(n4ncc(C(=O)O)c4C(F)F)C3)cc2)CC1 (single isomer, unassigned; enantiomer 2) [Example 47, 1-(1-{4′-[4-(3-Amino-3-oxopropyl)piperazin-1-yl]-4-chloro[biphenyl]-2-yl}piperidin-3-yl)-5-(difluoromethyl)-1H-pyrazole-4-carboxylic acid (Enantiomer 2)] | 18 | 3.0
8 | CC(F)(F)CN1CCN(c2ccc(-c3ccc(Cl)cc3N3CCCC(n4ncc(C(=O)O)c4C(F)F)C3)cc2)CC1 (single isomer, unassigned; enantiomer 2) [Example 25, 1-(1-{4-Chloro-4′-[4-(2,2-difluoropropyl)piperazin-1-yl][biphenyl]-2-yl}piperidin-3-yl)-5-(difluoromethyl)-1H-pyrazole-4-carboxylic acid hydrochloride (Enantiomer 2)] | 2.4 | 0.3
9 | O=C(O)c1cnn(C2CCCN(c3cc(Cl)ccc3-c3ccc(N4CCN(C[C@@H]5C[C@@H]5F)CC4)cc3)C2)c1C(F)F (single isomer, unassigned; stereoisomer 2) [Example 36] | 4.2 | 1.0
